# From publication PMC4020785 (PLoS ONE, 2014)
# What was measured:
# [1] = system: HIV-1 clone ZM247Fv-1 (subtype C); assay: HIV-1 ZM247Fv-1 (subtype C) infection of MT-4 cells, Cell Titer Blue readout; format: cell-based
# Method: (§1) Human PMBCs were incubated with 100 U recombinant IL-2 (Sigma-Aldrich) and 5 µg/mL phytohemagglutinin-P (PHA-P) (Difco) for 5 days at 37°C. MT-4 cells (1×10^6) or treated PBMCs (1.2×10^8) were infected with HIV-1 clone NL-4.3 or ZM247Fv-1 (MOI of 0.001) by spinoculation (1200 g at room temperature for 2 h). Uninfected cells were used as negative control and were also subjected to the spinoculation process. After spinoculation, supernatants were discarded and cells were resuspended in 10 mL of R10. Cells from each condition were then added to wells (96-well plate) containing serial dilutions of each ISD. For MT-4 cells, each dilution was done in sextuplicates and, for PBMCs, in triplicates. Cells were also incubated with different concentrations of ZDV as positive control. After 5 days in culture, Cell Titer Blue was added to each well and cells were incubated for additional 24 h. The median effective concentration for each drug is defined as EC50. In parallel with the infectivity assay, the same cell types were treated with different concentrations of drugs to determine their cytotoxicity, following the protocol described above. Drug concentration that results in a 50% decrease in viable cells is defined as the CC50 for each compound. EC50 was calculated according to Spearman-Karber and therapeutic index was defined by the ratio between CC50 and EC50 [55].
# All statistical analyses were performed using program GraphPism version 6.0. Titrations for TCID50 infectivity were calculated by the Spearman-Karber method. Dose response curves to ISDs with HIV-1 subtype B and C were done using non-linear regression and were fit to the Hill equation.
# [2] = Cytotoxicity (CC50) in MT-4 cells; format: cell-based; conditions: human, Subtype B (X4)
# Method: (§2) Cytotoxicity of ISDs was evaluated in J-Lat (clones 9.2 and 10.6) and PHA-activated human PBMCs. Cells were added to wells in a 96-well plate in the presence of various concentrations of ISDs, PMA or prostratin in sextuplicates for 24 and 72 h. Cell viability was determined using the CellTiter-blue fluorescence Cell Viability Assay (Promega) following the manufacturer's instruction.
# as §1
# [3] = Cytotoxicity (CC50) in human PBMCs; format: cell-based; conditions: human PBMCs activated with IL-2 and PHA-P; Human PBMC, Subtype C (R5)
# Method: as §2, §1
# [4] = system: HIV-1 p24 in J-Lat clones; assay: HIV-1 p24 production in J-Lat clones (ELISA); format: cell-based; conditions: J-Lat clones, GFP and p24 taken together
# Method: ACH-2 and J1.1 are clonal cell lines derived from CEM [52] and Jurkat cells, respectively, after infection with HIV-1. U1 cells were derived from the human promonocyte cell line U937 and chronically infected with HIV-1 [54]. Each cell line (1×10^6 cells) was incubated in the presence of 1 µM of diterpenes (ING-A, ING-B, ING-C, prostratin and PMA) or 10 ng/mL TNF-α for 48 h at 37°C. After incubation, cells were centrifuged and supernatants were collected for the quantitation of gag p24 antigen by ELISA, following the protocol described by the manufacturer (Perkin Elmer).
# To assess whether the GFP expression levels induced by ISDs in J-Lats led to viral production, all five clones were stimulated with 1 µM of each compound for 48 h and production of HIV-1 p24 was measured in the culture supernatant by ELISA. Levels of p24 were proportional to GFP expression in clones 6.3 and 9.2, whereas levels in clone 8.4 were lower when compared to GFP (Figure 3A).
# [5] = system: CD4, CXCR4, CCR5 on CD4+ T lymphocytes; assay: Surface CD4, CXCR4, CCR5 expression in CD4+ T lymphocytes (cytometry); format: cell-based, human; conditions: cells from three donors, different concentrations, 24 h
# Method: For analysis of cell surface marker expression, MT-4 cells and bead-selected CD4+ T cells (described above) were incubated with 1 µM of each compound (ING-A, ING-B, ING-C, prostratin, PMA, and bryostatin-1) at 37°C for 48 h. After incubation, cells were washed with PBS and incubated for 20 min at room temperature with antibodies against CD3-Brilliant Violet 510 (clone OKT3 – Biolegend), CD4-Qdot 655 (clone 53.5 - Life Technologies), CXCR4-PE (clone 1265 - BD Biosciences), CCR5-PerCP-Cy5.5 (clone 3A9 - BD Biosciences), CD69-Pacific Blue (clone FN50 – BD Biosciences), CD38-FITC (clone AT-1 – Stem Cell Technologies), CD25-APC (clone 2A3 – BD Biosciences), HLA-DR-Qdot 605 (clone TÜ36 – Life Technologies) and a marker for annexin V-FITC (Life Technologies). Cells (both MT-4 cells and CD4+ T cells) were initially incubated for 2 h with different PKC inhibitors (GÖ6983, GÖ6976 or RO-31-8220). Then, ING-B, prostratin or PMA at 1 µM or TNF-α at 10 ng/mL were added to each condition and incubation was carried out for 24 h at 37°C. Similar protocol was used for the analysis of PKC inhibitors in J-Lat clones 9.2 and 10.6. GFP expression, surface marker expression and activation marker were evaluated on a LSR Fortessa cytometer (BD Biosciences). Data analysis was performed using FlowJo software (Tree Star).
# HIV-1 NL4.3-Luc = assay: Luciferase expression in CD4+ T cells pre-treated and infected with NL4.3-Luc; format: cell-based; conditions: cells pre-treated 24 h, infected with NL4.3-Luc MOI 0.1
# Method: CD4+ T cells were isolated by negative selection from human PBMCs (2.5×10^8 cells) using magnetic beads (Miltenyi) and incubated with 5 µg/mL PHA-P and 100 U IL-2 for 5 days. Cells were then seeded in 6-well plates (10^6 cells per well) and treated with different concentrations of ING-B. After 24 h, cells were infected with HIV-1 NL-Luc (MOI of 0.1) by spinoculation. Infected cells were kept at 37°C for 24 h and then collected for luciferase activity evaluation as described above.
# human PBMCs = assay: Cellular proliferation assay (CFSE) in human PBMCs; format: cell-based; conditions: CFSE-stained human PBMC, 1, 5 or 10 µM, 8 days
# Method: Human PBMCs were stained with CFSE following manufacturer's instructions (Sigma-Aldrich). After staining, cells were washed twice in PBS and incubated with ING-B (1, 5 or 10 µM), 5 µg/mL PHA-P plus 10 U/mL IL-2 (as positive control), or DMSO 1% (as negative control). Cell proliferation was assessed for 8 days after stimulation, and relative proliferation index was calculated for all conditions.
# MT-4 cells = assay: Cell cycle analysis (propidium iodide) in MT-4 cells; format: cell-based; conditions: 48 h
# Method: Human PBMCs and MT-4 cells were incubated at 37°C with different concentrations of ING-B for 48 h. After incubation, cells were collected, washed twice with PBS, and stained with 200 µl of propidium iodide (50 µg/mL, diluted in Hanks buffer with 1 mg/mL RNAse and 0.2% Triton X-100) for 15 min on ice before cytometry analysis.
# [6] = design: method as in personal communication from Bioqual – Rockville, USA; conditions: Rhesus macaques, orally treated at similar dose; ref personal communication from Bioqual – Rockville, USA; cited from earlier work
structure (smiles),measurement,setting,value
"CCCCCC(=O)O[C@H]1C(C)=C[C@]23C(=O)[C@@H](C=C(CO)[C@@H](O)[C@]12O)[C@H]1[C@@H](C[C@H]3C)C1(C)C [ING-B, ingenol-3-hexanoate]",EC50,"[1]; Human immunodeficiency virus 1, MT4",0.025 µM
same,TI (CC50/EC50),"[1]; MT-4 cells, Subtype C (R5)",1120
same,CC50 at 5 days,[2],28 µM
same,CC50 at 5 days,[3],40 µM
same,"HIV-LTR activation, overall comparison",[4],equivalent levels to PMA and TNF-α
same,"downregulation of CD4, CCR5 and CXCR4, dose dependence",[5],dose dependent
same,levels of HIV-driven luciferase,HIV-1 NL4.3-Luc,dramatically reduced
same,cell proliferation,human PBMCs,no evidence that ING-B caused cell proliferation
same,cell cycle phases,MT-4 cells,did not alter cell cycle phases
same,side effects,[6],negligible side effects
